{
  "source": "patent US20090156657A1",
  "about": "“ANTI-INFLAMMATORY COMPOSITION” (Ajinomoto Co., Inc., priority 2006, published 2009)",
  "key": {"[1]": {"experiment": "IBD model mouse: body weight, ingested feed, water drunk", "format": "in vivo", "conditions": "IBD model mice", "description": "(§1) 4 days before IL-10 deficient cell transplantation, total 40 SCID mice (7-week-old, were divided into the following 4 groups 1) to 4) (10 mice in each group) and acclimation to a control diet was simultaneously started. Immediately after cell transfer, the feed was changed to the test diet shown in Table 4, and free ingestion was allowed for 3 weeks. The safflower seed extract powder was the same as that in Example 8, and contained 50 wt % of γ-cyclodextrin. N-Feruloylserotonin (FS) was synthesized according to the method of Experimental Example 1. During the test diet ingestion period, the body weight, the amount of ingested feed and the amount of water drunk were measured 3 times a week to monitor the onset of the disease.\n(§2) 1) Normal group (normal SCID mice×control diet) 2) Control group (IL-10 deficient cell-transplanted SCID mice×control diet) 3) SSE group (IL-10 deficient cell-transplanted SCID mice×SSE diet*) 4) FS group (IL-10 deficient cell-transplanted SCID mice×FS diet**) *containing FS and p-coumaroyl serotonin (CS) at 0.10 and 0.13 wt %, respectively (based on aglycone) (total serotonin derivative content=[…]) **containing 0.4 wt % of FS aglycone"}, "[2]": {"test_system": "MCP-1", "experiment": "MCP-1 secretion into medium of HAEC (immunoassay)", "format": "cell-based, human", "conditions": "0.1-10 μM 24 h, 25 mM glucose 4 h, FIG. 4B", "description": "HAEC cells proliferated to confluence in a 96 well microplate were pre-incubated with 0.1-10 μM serotonin derivative for 24 hours, and stimulated with 25 mM glucose for 4 hours. The cell layer was washed with Hanks solution, and then anti-VCAM-1 monoclonal antibody (Becton Dickinson) was added and the cells were incubated at 37° C. for 1 hour. After washing, the cells were incubated with secondary antibody (peroxidase-labeled anti-mouse IgG goat F(ab′)2 fragment; Cappel) for 1 hour. A color development substrate (o-phenylenediamine dihydrochloride) was added and, about 30 minutes later (room temperature), the absorbance (492 nm) of each well was quantified with a microplate reader. The MCP-1 concentration of the medium was quantified with Human MCP-1 Immunoassay Kit (BioSource International)."}, "[3]": {"test_system": "TNF-α mRNA", "experiment": "IBD model mouse: TNF-α mRNA in large intestine tissue (realtime PCR)", "format": "in vivo", "conditions": "IBD model mice, vs Control group, GAPDH internal standard; FIG. 15", "description": "(§3) At the end of the test described in Example 10, the large intestine (caecum—anus) was cut into about 1 cm pieces from the center to the anus side to give 3 sections in total. One of them was fixed with 10% formalin solution and two were frozen in liquid nitrogen. The large intestine fixed with formalin was embedded in paraffin, and sliced to give transversely sectioned specimens. The specimens were stained by a PAS (Periodic acid Schiff) staining method, and histopathological images were observed. On the other hand, total RNA was extracted from the frozen large intestine tissue with ISOGEN (NIPPON GENE CO., LTD.) Total RNA (2 μg) was subjected to a reverse transcription reaction using a SYBR ExScript™ RT-PCR kit (TaKaRa) and, using this as a template, quantitative realtime PCR was performed using IL-1β, TNF-α and GAPDH. The primers used for the analysis were as follows.\n(§4) Template DNA (2 μl), SYBR Premix Ex Taq™ (TaKaRa, 10 μl), ROX Reference Dye (0.4 μl), 100 μM forward primer (0.04 μl), 100 μM reverse primer (0.04 μl) and sterile water (7.52 μl) were mixed on ice and, using Applied Biosystems 7900HT Fast realtime PCR system, the mixture was heated at 95° C. for 10 seconds, followed by 40 cycles of 95° C., 5 seconds and 60° C., 34 seconds, whereby the DNA was amplified. Using GAPDH as the internal standard, IL-1β and TNF-α expression levels were evaluated."}, "[4]": {"test_system": "U-937 monocyte cells / HAEC", "experiment": "Monocyte (U-937) adhesion to HAEC cells", "format": "cell-based, human", "conditions": "HAEC pre-incubated 5 or 10 μM 24 h, 25 mM glucose 4 h; FIG. 5", "description": "HAEC cells proliferated to confluence in a 24 well microplate were pre-incubated with CS and FS (5 or 10 μM each) for 24 hours and stimulated with 25 mM glucose for 4 hours. The cell layer was washed with Hanks solution, and then a suspension (1×10^6/mL, 200 μL) of U-937 monocyte cells (purchased from ATCC) was added, and the mixture was incubated at 37° C. for 30 minutes. After washing again, the cells were fixed with 1% para-formaldehyde and the number of U-937 cells attached onto HAEC was counted under a microscope (20 fields). The experiment was performed 3 times and the results are shown as an average value thereof. An experiment using fluorescence-labeled U-937 cells was also performed. To be specific, U-937 cells were incubated (37° C., 1 hour) in the presence of 10 μM 2′,7′-bis(2-carboxyethyl)-5(6)-carboxyfluorescein acetoxymethylester (BCECF-AM, Molecular Probes) and washed by centrifugation. Fluorescence-labeled U-937 cells (1×10^6/mL) were added to HAEC cells, and the mixture was incubated at 37° C. for 1 hour. The floating U-937 cells were removed, the plate was washed with PBS buffer and treated with 1% Triton X for 2 hours. The fluorescence amount of the attached cells was quantified (Ex. 503 nm, Em. 525 nm) using a fluorescence plate reader (Bio-Rad, Fluoromark)."}, "[5]": {"test_system": "IL-1β mRNA", "experiment": "IBD model mouse: IL-1β mRNA in large intestine tissue (realtime PCR)", "format": "in vivo", "conditions": "IBD model mice, vs Control group, GAPDH internal standard; FIG. 15", "description": "as §3, §4"}, "[6]": {"test_system": "IBD model mice (IL-10 deficient cell-transplanted SCID mice)", "experiment": "Inflammatory bowel disease (IBD) model mouse: large intestine and blood cell counts", "format": "in vivo", "conditions": "diet 3 weeks, vs Control group", "description": "Immunopharmacol., 5, 993-1006 (2005)).\nas §1, §2\nAfter the completion of the test diet ingestion period, blood samples were collected under anesthesia, and the length of the isolated large intestine (appendix—anus) and the weight thereof (after washing the contents) were measured. Using the obtained data, t-test was first conducted between the Normal group and the Control group and, after confirmation of the effectiveness of the test, variance analyses were performed between the Control group and each of SSE and FS groups, and the effect of the test substance was compared by Dunnett-test."}},
  "data": [
    {"smiles": "COc1cc(/C=C/C(=O)NCCc2c[nH]c3ccc(O)cc23)ccc1O", "note": "[FS, N-feruloyl serotonin]", "values": [
      {"measurement": "body weight change rate (day 0 = 100)", "setting": "[1]; day 21 vs day 0, mean ± SEM", "result": "112.5 ± 1.2"},
      {"measurement": "body weight, completion of test diet ingestion (day 21)", "setting": "[1]; mean ± SEM", "result": "20.6 ± 0.4", "unit": "g"},
      {"measurement": "body weight, start of test diet ingestion (day 0)", "setting": "[1]; mean ± SEM, baseline", "result": "18.3 ± 0.3", "unit": "g"},
      {"measurement": "MCP-1 secretion into the medium", "setting": "[2]", "result": "suppressed the induction of their expressions in a dose-dependent manner"},
      {"measurement": "mRNA expression level of TNF-α in large intestine tissue", "setting": "[3]", "result": "tendency toward decrease"},
      {"measurement": "number of U-937 cells attached onto HAEC (cell count)", "setting": "[4]", "result": "decreased the number of attached cells in a serotonin derivative dose-dependent manner"},
      {"measurement": "mRNA expression level of IL-1β in large intestine tissue", "setting": "[5]", "result": "significant decrease"},
      {"measurement": "large intestine weight", "setting": "[6]; FIG. 11B", "result": "significantly lower values"},
      {"measurement": "large intestine weight per unit intestine length", "setting": "[6]; FIG. 11C", "result": "significantly lower values"},
      {"measurement": "platelet count", "setting": "[6]; FIG. 12B", "result": "significantly lower"},
      {"measurement": "leukocyte count", "setting": "[6]; not statistically significant, FIG. 12A", "result": "tendency toward lower values"},
      {"measurement": "neutrophil count", "setting": "[6]; not statistically significant, FIG. 12C", "result": "tendency toward lower values"},
      {"measurement": "monocyte count", "setting": "[6]; not statistically significant, FIG. 12D", "result": "tendency toward lower values"}
    ]}
  ]
}
